Measurements taken from patent EP4644383A1 (Jiangsu Yahong Meditech Co., Ltd., priority 2022, dated 2024).

Columns and labels:
FGFR3 = biological target: T1, FGFR3 (Homo sapiens, UniProt P22607); experiment: FGFR3 kinase activity inhibition assay (LanthaScreen TR-FRET); assay type: biochemical
T1 construct: FGFR3's cytoplasmic domain [436-806 (terminal) amino acids]; purchased Carna 08-135
In short: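 Read-out is TR-FRET, with the 520 nm/495 nm emission ratio normalised to DMSO (max) and enzyme-free (min) controls. Enzyme was the FGFR3 cytoplasmic domain, residues 436-806. EDTA (10 mM) stopped the reaction, followed by 60 min at 22 °C before reading.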

[1] = tested on: Ba/F3-FGFR3-BAIAP2L1 cells; experiment: Inhibition of proliferation activity of Ba/F3-FGFR3-BAIAP2L1 cells (CellTiter-Glo); assay type: cell-based
Description: The present experiment used CellTiter-Glo® Luminescent Cell Viability Assay (Promega: G7573) kit, which was a homogeneous cell viability detection method and determined the cell viability of cultured cells by quantifying ATP. • ① Ba/F3-BCR-FGFR1 or Ba/F3-FGFR3-BAIAP2L1 cells were cultured in 1640 complete medium (Gibco: 11879020) (10% FBS (Gibco: 10091-148)+1% Pen Strep (Gibco: 15140122)) under the condition of 37°C and 5% CO2. • (2) The cells in logarithmic growth phase were harvested and counted using a […]. The trypan blue exclusion method was used to detect cell viability to ensure the cell viability was above 90%. • ③ The cell density was adjusted using 1640 complete medium, and then, the cells were seeded into a 96-well cell culture plate at 90 µL/well with a total of 2000 cells. • ④ A 10-fold drug solution was prepared starting from a maximum drug concentration of 10 µM and 4-fold serially diluted into10 concentrations. […] The luminescence values were read to collect the data. • ⑩ The data were analyzed using XLFit excel plugin version 5.5.0.5, and fitted with non-linear S-curve regression to obtain the dose-response curves and thus calculate the IC50 values. Y = Bottom + (Top-Bottom)/((1+(IC50/X))^(∧) HillSlope [formula]
(§1) "Top" refers to the maximum response, "Bottom" refers to the minimum response, and "HillSlope" refers to the slope of the curve.
(§2) "Max" represents the average value of the cell control+DMSO, and "Min" represents the average value of the medium control+DMSO.

FGFR1 = biological target: T2, FGFR1 (Homo sapiens, UniProt P11362); experiment: FGFR1 kinase activity inhibition assay (LanthaScreen TR-FRET); assay type: biochemical; conditions: FGFR1 kinase, TR-FRET; read-out: IC50 (nM) FGFR1
T2 construct: cytoplasmic domain [398-822 (terminal) amino acids]; purchased Carna 08-133
T2 sequence (P11362 398-822): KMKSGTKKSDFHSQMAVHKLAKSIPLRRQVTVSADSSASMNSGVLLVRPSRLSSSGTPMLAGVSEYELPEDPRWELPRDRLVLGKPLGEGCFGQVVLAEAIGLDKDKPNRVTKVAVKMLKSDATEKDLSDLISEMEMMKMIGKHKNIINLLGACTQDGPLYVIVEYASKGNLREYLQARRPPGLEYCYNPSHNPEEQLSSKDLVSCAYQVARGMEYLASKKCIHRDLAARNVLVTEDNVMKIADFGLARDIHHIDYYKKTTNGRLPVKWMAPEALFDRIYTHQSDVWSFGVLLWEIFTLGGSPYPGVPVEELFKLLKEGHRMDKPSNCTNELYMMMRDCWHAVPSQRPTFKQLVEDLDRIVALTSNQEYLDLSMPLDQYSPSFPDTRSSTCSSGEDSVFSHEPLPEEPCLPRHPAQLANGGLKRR
In short: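 Emission ratio 520 nm/495 nm by TR-FRET after stopping reaction with 10 mM EDTA and 60 min incubation at 22°C. Inhibition normalized between no-enzyme (min) and DMSO (max) controls, then fitted to a four-parameter curve (Top, Bottom, HillSlope).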

Ba/F3-BCR-FGFR1 cells = experiment: Inhibition of proliferation activity of Ba/F3-BCR-FGFR1 cells (CellTiter-Glo); assay type: cell-based; conditions: Ba/F3-BCR-FGFR1 cells, 72 hours, CTG; read-out: IC50 (nM) Ba/F3-BCR-FGFR1
Description: The present experiment used CellTiter-Glo® Luminescent Cell Viability Assay (Promega: G7573) kit, which was a homogeneous cell viability detection method and determined the cell viability of cultured cells by quantifying ATP. • ① Ba/F3-BCR-FGFR1 or Ba/F3-FGFR3-BAIAP2L1 cells were cultured in 1640 complete medium (Gibco: 11879020) (10% FBS (Gibco: 10091-148)+1% Pen Strep (Gibco: 15140122)) under the condition of 37°C and 5% CO2. • (2) The cells in logarithmic growth phase were harvested and counted using a […]. The trypan blue exclusion method was used to detect cell viability to ensure the cell viability was above 90%. • ③ The cell density was adjusted using 1640 complete medium, and then, the cells were seeded into a 96-well cell culture plate at 90 µL/well with a total of 2000 cells. • ④ A 10-fold drug solution was prepared starting from a maximum drug concentration of 10 µM and 4-fold serially diluted into10 concentrations. Then, 10 µL of each of the serially diluted compounds was transferred to the corresponding experimental wells of a 96-well cell plate, with two replicates for each drug concentration. • ⑤ The 96-well plate with the cells that had been treated with the drugs was placed under the condition of 37°C and 5% CO2 to be further cultured for 72 hours, and then analyzed by CTG. • ⑥ The CTG reagent was melted and the cell plate was equilibrated to room temperature for 30 minutes. • ⑦ 50 µL of the CTG solution was added to each well. • ⑧ The cell plate was shaken on an orbital shaker for 5 minutes to lyse the cells. • ⑨ The cell plate was placed at room temperature for 20 minutes to stabilize the luminescence signal. The luminescence values were read to collect the data. • ⑩ The data were analyzed using XLFit excel plugin version 5.5.0.5, and fitted with non-linear S-curve regression to obtain the dose-response curves and thus calculate the IC50 values. Y = Bottom + (Top-Bottom)/((1+(IC50/X))^(∧) HillSlope [formula]
as §1, §2

T1 sequence (P22607 436-806): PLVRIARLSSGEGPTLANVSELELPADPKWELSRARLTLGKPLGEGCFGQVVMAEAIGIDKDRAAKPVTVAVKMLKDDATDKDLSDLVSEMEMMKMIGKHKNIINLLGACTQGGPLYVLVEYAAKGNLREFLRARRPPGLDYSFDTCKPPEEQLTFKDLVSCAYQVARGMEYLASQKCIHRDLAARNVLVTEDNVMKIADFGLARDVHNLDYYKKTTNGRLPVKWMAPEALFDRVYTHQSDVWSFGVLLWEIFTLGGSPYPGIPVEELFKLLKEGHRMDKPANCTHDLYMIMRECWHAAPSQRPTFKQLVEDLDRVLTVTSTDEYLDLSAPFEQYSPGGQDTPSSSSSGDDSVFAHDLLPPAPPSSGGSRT

IC50 (FGFR3; FGFR3 kinase, TR-FRET, read-out: IC50 (nM) FGFR3): 10 to 100 nM
Selectivity (X) FGFR1/FGFR3 (FGFR3; ratio of IC50 FGFR1/FGFR3, selectivity towards FGFR3): A (A represents 1 ≤ multiple X<20)
IC50 ([1]; Ba/F3-FGFR3-BAIAP2L1 cells, 72 hours, CTG, read-out: IC50 (nM) Ba/F3-FGFR3-BAIAP2L1): 41.8 nM
IC50 (FGFR1): > 100 nM
IC50 (Ba/F3-BCR-FGFR1 cells): 1760 nM
Structure (SMILES): CC(Oc1ccc2[nH]nc(-c3cnn(C)c3)c2c1)c1cccc2ncncc12 (stereo not drawn) [Example 99, 5-(1-((3-(1-methyl-1H-pyrazol-4-yl)-1H-indazol-5-yl)oxy)ethyl)qu inazoline]
Selectivity (X) FGFR1/FGFR3 ([1]; ratio of IC50 Ba/F3-BCR-FGFR1 to IC50 Ba/F3-FGFR3-BAIAP2L1): 42 X
